Assay results from US20250353891A1 (MEDIMMUNE LIMITED, priority 2022, published 2025).
Starred links: 1 amine or outer side, 2 acyl side, 3 side chain; linkers in the order of their positions; H or OH if unused. Non-standard residues stand in square brackets, D forms with d. Residues, ends and D or L forms follow the SMILES beside them. Groups on a side chain read outwards from the residue. *: point of attachment. C20 diacid = O=C(O)CCCCCCCCCCCCCCCCCCC(=O)*; C18 diacid = O=C(O)CCCCCCCCCCCCCCCCC(=O)*; γGlu = O=C(O)[C@H](CCC(=O)[*:2])N[*:1]; αMeF = C[C@](N)(Cc1ccccc1)C(=O)O; AEEA = NCCOCCOCC(=O)O; Aib = CC(C)(N)C(=O)O

Experiments:
[1] = molecular target: human glucagon receptor (hGCGR) (Homo sapiens, UniProt P47871); experiment: cAMP production (HTRF) in CHO cells expressing hGCGR; type: cell-based; parameters: expressed in transfected cells; conditions: Table 6, peptides modified at position 17; cAMP in CHO hGCGR cells; geometric mean; read-out: hGluc-R EC50
Procedure, shortened: (§1)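 Read-out: HTRF cAMP (anti-cAMP cryptate donor, cAMP-d2 acceptor in conjugate/lysis buffer), converted to % Delta F and fitted by 4-parameter logistic for EC50. Cell densities were 1×10^5 cells/mL (hGLP-1R) or 2×10^5 cells/mL (hGCGR). Stimulation lasted 30 min at room temperature.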

[2] = molecular target: human GLP-1 receptor (hGLP-1R) (Homo sapiens, UniProt P43220); experiment: cAMP production (HTRF) in CHO cells expressing hGLP-1R; type: cell-based; parameters: expressed in transfected cells; conditions: for EC50: Table 6, peptides modified at position 17, cAMP in CHO hGLP-1R cells, geometric mean, read-out: hGLP-1R EC50; for % Relative Potency Ratio: Table 6, % GLP-1R activity relative to GLP-1 / % GlucR activity relative to glucagon
Procedure, shortened: as §1

human GLP-1 receptor (hGLP-1R), sequence (P43220 24-463): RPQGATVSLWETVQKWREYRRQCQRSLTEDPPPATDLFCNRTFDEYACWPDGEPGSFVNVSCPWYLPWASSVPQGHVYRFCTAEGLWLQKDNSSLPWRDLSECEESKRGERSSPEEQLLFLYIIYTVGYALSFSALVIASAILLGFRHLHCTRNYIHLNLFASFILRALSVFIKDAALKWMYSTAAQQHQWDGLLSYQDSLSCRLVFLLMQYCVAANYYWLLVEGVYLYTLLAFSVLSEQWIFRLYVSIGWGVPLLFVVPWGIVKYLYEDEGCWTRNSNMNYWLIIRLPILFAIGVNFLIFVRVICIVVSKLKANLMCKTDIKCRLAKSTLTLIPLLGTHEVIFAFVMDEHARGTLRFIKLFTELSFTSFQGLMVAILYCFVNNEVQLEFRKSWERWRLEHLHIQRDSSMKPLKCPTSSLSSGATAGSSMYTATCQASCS
human glucagon receptor (hGCGR), sequence (P47871 26-477): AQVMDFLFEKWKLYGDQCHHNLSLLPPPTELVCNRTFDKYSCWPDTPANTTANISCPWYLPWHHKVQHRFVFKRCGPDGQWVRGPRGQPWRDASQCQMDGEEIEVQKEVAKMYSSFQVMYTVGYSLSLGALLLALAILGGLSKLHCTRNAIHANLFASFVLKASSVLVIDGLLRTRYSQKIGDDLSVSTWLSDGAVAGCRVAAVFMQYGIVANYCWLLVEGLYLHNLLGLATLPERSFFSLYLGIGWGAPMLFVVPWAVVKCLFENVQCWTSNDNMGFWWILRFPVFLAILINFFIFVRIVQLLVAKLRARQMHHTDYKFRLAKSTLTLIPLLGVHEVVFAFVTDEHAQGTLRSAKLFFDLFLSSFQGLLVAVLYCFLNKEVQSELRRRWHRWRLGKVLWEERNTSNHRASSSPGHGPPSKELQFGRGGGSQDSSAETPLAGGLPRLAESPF

| SMILES | EC50 [1] [nM] | EC50 [2] [nM] | % Relative Potency Ratio [2] |
| --- | --- | --- | --- |
| CC(C)C[C@H](NC(=O)[C@H](Cc1c[nH]c2ccccc12)NC(=O)[C@H](CCCNC(=N)N)NC(=O)[C@@H](NC(=O)[C@H](Cc1ccccc1)NC(=O)[C@H](CC(=O)O)NC(=O)[C@H](CCCNC(=N)N)NC(=O)[C@H](C)NC(=O)[C@H](CCCNC(=N)N)NC(=O)[C@H](CCCCNC(=O)COCCOCCNC(=O)COCCOCCNC(=O)CC[C@H](NC(=O)CCCCCCCCCCCCCCCCCCC(=O)O)C(=O)O)NC(=O)[C@@H](NC(=O)[C@H](CC(=O)O)NC(=O)[C@H](CC(C)C)NC(=O)[C@](C)(Cc1ccccc1)NC(=O)[C@H](CCCCN)NC(=O)[C@H](CO)NC(=O)[C@@H](NC(=O)[C@H](CC(=O)O)NC(=O)[C@H](CO)NC(=O)[C@@H](NC(=O)[C@H](Cc1ccccc1)NC(=O)[C@@H](NC(=O)CNC(=O)[C@H](CCC(N)=O)NC(=O)C(C)(C)NC(=O)[C@@H](N)Cc1c[nH]cn1)[C@@H](C)O)[C@@H](C)O)C(C)C)[C@@H](C)O)C(C)C)C(=O)N[C@@H](CC(C)C)C(=O)NC(C)(C)C(=O)N[C@H](C(=O)N[C@@H](CCC(=O)O)C(=O)O)[C@@H](C)O [Peptide 492] (H-H[Aib]QGTFTSDVSK[αMeF]LDTK([AEEA-AEEA-γGlu-C20 diacid])RARDFVRWLL[Aib]TE-OH; N-terminus assumed) | 0.374 | 0.212 | 3.5 |
| CC(C)C[C@H](NC(=O)[C@H](Cc1c[nH]c2ccccc12)NC(=O)[C@H](CCCNC(=N)N)NC(=O)[C@@H](NC(=O)[C@H](Cc1ccccc1)NC(=O)[C@H](CC(=O)O)NC(=O)[C@H](CCC(N)=O)NC(=O)[C@H](C)NC(=O)[C@H](CCCNC(=N)N)NC(=O)[C@H](CCCCNC(=O)COCCOCCNC(=O)COCCOCCNC(=O)CC[C@H](NC(=O)CCCCCCCCCCCCCCCCC(=O)O)C(=O)O)NC(=O)[C@@H](NC(=O)[C@H](CC(=O)O)NC(=O)[C@H](CC(C)C)NC(=O)[C@](C)(Cc1ccccc1)NC(=O)[C@H](CCCCN)NC(=O)[C@H](CO)NC(=O)[C@@H](NC(=O)[C@H](CC(=O)O)NC(=O)[C@H](CO)NC(=O)[C@@H](NC(=O)[C@H](Cc1ccccc1)NC(=O)[C@@H](NC(=O)CNC(=O)[C@H](CCC(N)=O)NC(=O)C(C)(C)NC(=O)[C@@H](N)Cc1c[nH]cn1)[C@@H](C)O)[C@@H](C)O)C(C)C)[C@@H](C)O)C(C)C)C(=O)N[C@@H](CC(C)C)C(=O)N[C@@H](CCCNC(=N)N)C(=O)NC(C)(C)C(=O)N[C@@H](CCCCN)C(=O)O [Peptide 493] (H-H[Aib]QGTFTSDVSK[αMeF]LDTK([AEEA-AEEA-γGlu-C18 diacid])RAQDFVRWLLR[Aib]K-OH; N-terminus assumed) | 0.166 | 0.0235 | 14.0 |
| CC(C)C[C@H](NC(=O)[C@H](Cc1c[nH]c2ccccc12)NC(=O)[C@H](CCCNC(=N)N)NC(=O)[C@@H](NC(=O)[C@H](Cc1ccccc1)NC(=O)[C@H](CC(=O)O)NC(=O)[C@H](CCC(N)=O)NC(=O)[C@H](C)NC(=O)[C@H](CCCNC(=N)N)NC(=O)[C@H](CCCCNC(=O)COCCOCCNC(=O)COCCOCCNC(=O)CC[C@H](NC(=O)CCCCCCCCCCCCCCCCCCC(=O)O)C(=O)O)NC(=O)[C@@H](NC(=O)[C@H](CC(=O)O)NC(=O)[C@H](CC(C)C)NC(=O)[C@](C)(Cc1ccccc1)NC(=O)[C@H](CCCCN)NC(=O)[C@H](CO)NC(=O)[C@@H](NC(=O)[C@H](CC(=O)O)NC(=O)[C@H](CO)NC(=O)[C@@H](NC(=O)[C@H](Cc1ccccc1)NC(=O)[C@@H](NC(=O)CNC(=O)[C@H](CCC(N)=O)NC(=O)C(C)(C)NC(=O)[C@@H](N)Cc1c[nH]cn1)[C@@H](C)O)[C@@H](C)O)C(C)C)[C@@H](C)O)C(C)C)C(=O)N[C@@H](CC(C)C)C(=O)N[C@@H](CCCNC(=N)N)C(=O)NC(C)(C)C(=O)N[C@@H](CCCCN)C(=O)O [Peptide 494] | 0.212 | 0.0987 | 4.3 |
| CC(C)C[C@H](NC(=O)[C@H](Cc1c[nH]c2ccccc12)NC(=O)[C@H](CCCNC(=N)N)NC(=O)[C@@H](NC(=O)[C@H](Cc1ccccc1)NC(=O)[C@H](CC(=O)O)NC(=O)[C@H](CCC(N)=O)NC(=O)[C@H](C)NC(=O)[C@H](CCCNC(=N)N)NC(=O)[C@H](CCCCNC(=O)COCCOCCNC(=O)COCCOCCNC(=O)CC[C@H](NC(=O)CCCCCCCCCCCCCCCCC(=O)O)C(=O)O)NC(=O)[C@@H](NC(=O)[C@H](CC(=O)O)NC(=O)[C@H](CC(C)C)NC(=O)[C@](C)(Cc1ccccc1)NC(=O)[C@H](CCCCN)NC(=O)[C@H](CO)NC(=O)[C@@H](NC(=O)[C@H](CC(=O)O)NC(=O)[C@H](CO)NC(=O)[C@@H](NC(=O)[C@H](Cc1ccccc1)NC(=O)[C@@H](NC(=O)CNC(=O)[C@H](CCC(N)=O)NC(=O)C(C)(C)NC(=O)[C@@H](N)Cc1c[nH]cn1)[C@@H](C)O)[C@@H](C)O)C(C)C)[C@@H](C)O)C(C)C)C(=O)N[C@@H](CC(C)C)C(=O)N[C@@H](CCCNC(=N)N)C(=O)NC(C)(C)C(=O)N[C@@H](CCCCN)C(N)=O [Peptide 495] (H-H[Aib]QGTFTSDVSK[αMeF]LDTK([AEEA-AEEA-γGlu-C18 diacid])RAQDFVRWLLR[Aib]K-NH2; N-terminus assumed) | 0.38 | 0.0232 | 32.4 |
| CC(C)C[C@H](NC(=O)[C@H](Cc1c[nH]c2ccccc12)NC(=O)[C@H](CCCNC(=N)N)NC(=O)[C@@H](NC(=O)[C@H](Cc1ccccc1)NC(=O)[C@H](CC(=O)O)NC(=O)[C@H](CCC(N)=O)NC(=O)[C@H](C)NC(=O)[C@H](CCCNC(=N)N)NC(=O)[C@H](CCCCNC(=O)COCCOCCNC(=O)COCCOCCNC(=O)CC[C@H](NC(=O)CCCCCCCCCCCCCCCCCCC(=O)O)C(=O)O)NC(=O)[C@@H](NC(=O)[C@H](CC(=O)O)NC(=O)[C@H](CC(C)C)NC(=O)[C@](C)(Cc1ccccc1)NC(=O)[C@H](CCCCN)NC(=O)[C@H](CO)NC(=O)[C@@H](NC(=O)[C@H](CC(=O)O)NC(=O)[C@H](CO)NC(=O)[C@@H](NC(=O)[C@H](Cc1ccccc1)NC(=O)[C@@H](NC(=O)CNC(=O)[C@H](CCC(N)=O)NC(=O)C(C)(C)NC(=O)[C@@H](N)Cc1c[nH]cn1)[C@@H](C)O)[C@@H](C)O)C(C)C)[C@@H](C)O)C(C)C)C(=O)N[C@@H](CC(C)C)C(=O)N[C@@H](CCCNC(=N)N)C(=O)NC(C)(C)C(=O)N[C@@H](CCCCN)C(N)=O [Peptide 496] (H-H[Aib]QGTFTSDVSK[αMeF]LDTK([AEEA-AEEA-γGlu-C20 diacid])RAQDFVRWLLR[Aib]K-NH2; N-terminus assumed) | 0.482 | 0.0649 | 14.7 |
| CC(C)C[C@H](NC(=O)[C@H](Cc1c[nH]c2ccccc12)NC(=O)[C@H](CCCNC(=N)N)NC(=O)[C@@H](NC(=O)[C@H](Cc1ccccc1)NC(=O)[C@H](CC(=O)O)NC(=O)[C@H](CCC(N)=O)NC(=O)[C@H](C)NC(=O)[C@H](CCCNC(=N)N)NC(=O)[C@H](CCCCNC(=O)COCCOCCNC(=O)COCCOCCNC(=O)CC[C@H](NC(=O)CCCCCCCCCCCCCCCCC(=O)O)C(=O)O)NC(=O)[C@@H](NC(=O)[C@H](CC(=O)O)NC(=O)[C@H](CC(C)C)NC(=O)[C@](C)(Cc1ccccc1)NC(=O)[C@H](CCCCN)NC(=O)[C@H](CO)NC(=O)[C@@H](NC(=O)[C@H](CC(=O)O)NC(=O)[C@H](CO)NC(=O)[C@@H](NC(=O)[C@H](Cc1ccccc1)NC(=O)[C@@H](NC(=O)CNC(=O)[C@H](CCC(N)=O)NC(=O)C(C)(C)NC(=O)[C@@H](N)Cc1c[nH]cn1)[C@@H](C)O)[C@@H](C)O)C(C)C)[C@@H](C)O)C(C)C)C(=O)N[C@@H](CC(C)C)C(=O)N[C@@H](CCCNC(=N)N)C(=O)NC(C)(C)C(=O)N[C@@H](C)C(=O)O [Peptide 497] (H-H[Aib]QGTFTSDVSK[αMeF]LDTK([AEEA-AEEA-γGlu-C18 diacid])RAQDFVRWLLR[Aib]A-OH) | 0.118 | 0.0374 | 6.3 |
| CC(C)C[C@H](NC(=O)[C@H](Cc1c[nH]c2ccccc12)NC(=O)[C@H](CCCNC(=N)N)NC(=O)[C@@H](NC(=O)[C@H](Cc1ccccc1)NC(=O)[C@H](CC(=O)O)NC(=O)[C@H](CCC(N)=O)NC(=O)[C@H](C)NC(=O)[C@H](CCCNC(=N)N)NC(=O)[C@H](CCCCNC(=O)COCCOCCNC(=O)COCCOCCNC(=O)CC[C@H](NC(=O)CCCCCCCCCCCCCCCCCCC(=O)O)C(=O)O)NC(=O)[C@@H](NC(=O)[C@H](CC(=O)O)NC(=O)[C@H](CC(C)C)NC(=O)[C@](C)(Cc1ccccc1)NC(=O)[C@H](CCCCN)NC(=O)[C@H](CO)NC(=O)[C@@H](NC(=O)[C@H](CC(=O)O)NC(=O)[C@H](CO)NC(=O)[C@@H](NC(=O)[C@H](Cc1ccccc1)NC(=O)[C@@H](NC(=O)CNC(=O)[C@H](CCC(N)=O)NC(=O)C(C)(C)NC(=O)[C@@H](N)Cc1c[nH]cn1)[C@@H](C)O)[C@@H](C)O)C(C)C)[C@@H](C)O)C(C)C)C(=O)N[C@@H](CC(C)C)C(=O)N[C@@H](CCCNC(=N)N)C(=O)NC(C)(C)C(=O)N[C@@H](C)C(=O)O [Peptide 498] (H-H[Aib]QGTFTSDVSK[αMeF]LDTK([AEEA-AEEA-γGlu-C20 diacid])RAQDFVRWLLR[Aib]A-OH; N-terminus assumed) | 0.17 | 0.156 | 2.1 |
